Results: PubChem BioAssay AID248 (DTP/NCI, 2004)
Several values for one entry are separate records, joined by “and”; a condition that tells them apart may be missing. Equal values may be shown once. Inconclusive results and toxic doses are left out.

Tested on: L1210 leukemia ip in BDF1 mice, survival T/C
Test: NCI In Vivo Anticancer Drug Screen. Data for tumor model L1210 Leukemia (intraperitoneal) in B6D2F1 (BDF1) mice
Conditions: endpoint: mean survival time, higher = longer survival
Method in brief: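 Antitumor effect is assessed in tumor-bearing animals. Survival in the compound arm is compared with a vehicle-dosed control arm and expressed as their quotient.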

[1] = dose: 100.0 mg/kg/injection, schedule: Q01DX001 (ip), vehicle: saline
[2] = dose: 200.0 mg/kg/injection, schedule: Q01DX001 (ip), vehicle: saline
[3] = dose: 400.0 mg/kg/injection, schedule: Q01DX001 (ip), vehicle: saline

For `CCOC(=O)c1sc2cc[nH]c2c1O`, the T/C (dose: 50.0 mg/kg/injection, schedule: Q01DX001 (ip), vehicle: Klucel (hydroxypropylcellulose) (HPC)) was 102 % of control, the T/C (dose: 100.0 mg/kg/injection, schedule: Q01DX001 (ip), vehicle: Klucel (hydroxypropylcellulose) (HPC)) was 100 % of control and the T/C (dose: 200.0 mg/kg/injection, schedule: Q01DX001 (ip), vehicle: Klucel (hydroxypropylcellulose) (HPC)) was 94 % of control.

For `CCN(CC)CCCC(C)Nc1ncnc(N)c1N` (centres undefined), the T/C (dose: 12.5 mg/kg/injection, schedule: Q04DX003 (ip), vehicle: Klucel (hydroxypropylcellulose) (HPC)) was 93 % of control, the T/C (dose: 25.0 mg/kg/injection, schedule: Q04DX003 (ip), vehicle: Klucel (hydroxypropylcellulose) (HPC)) was 91 % of control and the T/C (dose: 50.0 mg/kg/injection, schedule: Q04DX003 (ip), vehicle: Klucel (hydroxypropylcellulose) (HPC)) was 102 % of control.

In the case of `CC12CCCC(O)C1(O)CC(C(=O)O)CC2` (centres undefined), the T/C (dose: 50.0 mg/kg/injection, schedule: Q01DX009 (ip), vehicle: saline with Tween-80) is reported as 100 % of control, the T/C (dose: 100.0 mg/kg/injection, schedule: Q01DX009 (ip), vehicle: saline with Tween-80) is reported as 96 % of control and the T/C (dose: 200.0 mg/kg/injection, schedule: Q01DX009 (ip), vehicle: saline with Tween-80) is reported as 96 % of control.

For `O=C(O)C(O)C(O)C(=O)O.[Cu+2]` (centres undefined), the T/C (dose: 5.0 mg/kg/injection, schedule: Q01DX001 (ip), vehicle: saline) was 95 % of control, the T/C (dose: 10.0 mg/kg/injection, schedule: Q01DX001 (ip), vehicle: saline) was 89 % of control and the T/C (dose: 20.0 mg/kg/injection, schedule: Q01DX001 (ip), vehicle: saline) was 93 % of control. For the same molecule, the T/C (dose: 40.0 mg/kg/injection, schedule: Q01DX001 (ip), vehicle: saline) was 101 % of control.

With `CN(C)/C=N/NC(=O)C1CC1` the T/C (dose: 100.0 mg/kg/injection, schedule: Q04DX003 (ip), vehicle: saline) was 100 % of control, the T/C (dose: 200.0 mg/kg/injection, schedule: Q04DX003 (ip), vehicle: saline) was 97 % of control and the T/C (dose: 400.0 mg/kg/injection, schedule: Q04DX003 (ip), vehicle: saline) was 107 % of control.

For `CC(=O)Oc1ccc[nH]c1=O`, the T/C (dose: 75.0 mg/kg/injection, schedule: Q01DX001 (ip), vehicle: saline) was 103 % of control, the T/C (dose: 75.0 mg/kg/injection, schedule: Q04DX003 (ip), vehicle: saline) was 103 % of control and the T/C (dose: 100.0 mg/kg/injection, schedule: Q01DX001 (ip), vehicle: carboxymethylcellulose (CMC)) was 100 % of control. For the same molecule, the T/C (dose: 100.0 mg/kg/injection, schedule: Q01DX009 (ip), vehicle: carboxymethylcellulose (CMC)) was 98 % of control, the T/C (dose: 100.0 mg/kg/injection, schedule: Q01DX009 (ip), vehicle: saline) was 101 % of control and the T/C (dose: 100.0 mg/kg/injection, schedule: Q01DX015 (ip), vehicle: saline) was 102 % of control. The T/C (dose: 150.0 mg/kg/injection, schedule: Q01DX001 (ip), vehicle: saline) was 102 % of control, the T/C (dose: 150.0 mg/kg/injection, schedule: Q04DX003 (ip), vehicle: saline) was 100 % of control and the T/C (dose: 200.0 mg/kg/injection, schedule: Q01DX001 (ip), vehicle: carboxymethylcellulose (CMC)) was 97 % of control. The T/C (dose: 200.0 mg/kg/injection, schedule: Q01DX009 (ip), vehicle: carboxymethylcellulose (CMC)) was 109 % of control, the T/C (dose: 200.0 mg/kg/injection, schedule: Q01DX009 (ip), vehicle: saline) was 114 % of control and the T/C (dose: 200.0 mg/kg/injection, schedule: Q01DX015 (ip), vehicle: saline) was 124 % of control. For the same molecule, the T/C (dose: 300.0 mg/kg/injection, schedule: Q01DX001 (ip), vehicle: saline) was 110 % of control, the T/C (dose: 300.0 mg/kg/injection, schedule: Q04DX003 (ip), vehicle: saline) was 113 % of control and the T/C (dose: 400.0 mg/kg/injection, schedule: Q01DX001 (ip), vehicle: carboxymethylcellulose (CMC)) was 103 % of control. For the same molecule, the T/C (dose: 400.0 mg/kg/injection, schedule: Q01DX009 (ip), vehicle: saline) was 153 % of control, the T/C (dose: 800.0 mg/kg/injection, schedule: Q01DX009 (ip), vehicle: carboxymethylcellulose (CMC)) was 154 % of control and the T/C (dose: 800.0 mg/kg/injection, schedule: Q01DX009 (ip), vehicle: saline) was 88 % of control.

For `CCOC(=O)c1cccc2c([N+](=O)[O-])cccc12`, the T/C [1] was 94 % of control, the T/C (dose: 100.0 mg/kg/injection, schedule: Q01DX009 (ip), vehicle: acetone) was 96 % of control and the T/C [2] was 98 % of control. For the same molecule, the T/C (dose: 200.0 mg/kg/injection, schedule: Q01DX009 (ip), vehicle: acetone) was 88 % of control, the T/C [3] was 98 % of control and the T/C (dose: 400.0 mg/kg/injection, schedule: Q01DX009 (ip), vehicle: acetone) was 97 % of control.

For `CCCCc1ccc(O)c(O)c1O`, the T/C (dose: 50.0 mg/kg/injection, schedule: Q01DX001 (sc), vehicle: olive oil, sesame oil, peanut oil) was 117 % of control, the T/C (dose: 100.0 mg/kg/injection, schedule: Q01DX001 (sc), vehicle: olive oil, sesame oil, peanut oil) was 101 % of control and 106 % of control and the T/C (dose: 200.0 mg/kg/injection, schedule: Q01DX001 (sc), vehicle: olive oil, sesame oil, peanut oil) was 101 % of control and 105 % of control. For the same molecule, the T/C (dose: 400.0 mg/kg/injection, schedule: Q01DX001 (sc), vehicle: olive oil, sesame oil, peanut oil) was 108 % of control.

In the case of `Cc1cn[nH]c1-c1ccccc1O`, the T/C (dose: 100.0 mg/kg/injection, schedule: Q04DX002 (ip), vehicle: saline with Tween-80) is reported as 96 % of control, the T/C (dose: 200.0 mg/kg/injection, schedule: Q04DX002 (ip), vehicle: saline with Tween-80) is reported as 100 % of control and the T/C (dose: 400.0 mg/kg/injection, schedule: Q04DX002 (ip), vehicle: saline with Tween-80) is reported as 100 % of control.

For `NC(=O)N/N=C1/CC2C3C=CC4C3CC2C14` (centres undefined), the T/C (dose: 37.5 mg/kg/injection, schedule: Q04DX002 (ip), vehicle: saline with Tween-80) was 117 % of control, the T/C (dose: 75.0 mg/kg/injection, schedule: Q04DX002 (ip), vehicle: saline with Tween-80) was 102 % of control and the T/C (dose: 150.0 mg/kg/injection, schedule: Q04DX002 (ip), vehicle: saline with Tween-80) was 106 % of control. The T/C (dose: 300.0 mg/kg/injection, schedule: Q04DX002 (ip), vehicle: saline with Tween-80) was 98 % of control.

For `CCN(CC)COC(C)=O`, the T/C [1] was 103 % of control, the T/C [2] was 106 % of control and the T/C [3] was 106 % of control.
